Experimental data: US20110280941A1, “COMPOSITIONS OF PROTON PUMP INHIBITORS AND INSULIN SECRETAGOGUES, AND METHODS OF THEIR USE TO TREAT DIABETES” (Mefford Scientific, LLC, priority 2008, published 2011)

Columns and labels:
Type in all cases: in vivo, human
[1] = tested on: Type II diabetic patients; test: % Beta Cell area calculated from the 2 hour glucose tolerance value (method of Meier et al) (Example 4); conditions: seven Type II diabetics; PPI administration
Protocol: (§1) Design: All subjects continued on their respective oral antidiabetic medications throughout the study. Baseline data was obtained in a fasting state after an overnight fast. Subjects were then administered 75 g of glucose and blood samples obtained at 1 and 2 hours. Following collection of baseline data, subjects were administered Omeprazole Delayed-Release Capsules USP, (Apotex Inc., Toronto, Canada M9L 179), 40 mg orally twice daily and blood samples again obtained after 8, and 16 weeks. Medications were not taken on the mornings of testing. Following the 16 week sample collection, subjects were increased to 80 mg Omeprazole twice daily and blood samples again obtained at 24 weeks.
Table 2 summarizes the effects of PPI administration on plasma Gastrin, Hemoglobin A1c and % Beta Cell area (calculated using the 2 hour glucose tolerance value by the method of Meier et al, Diabetes, vol 58, 1595-1603, 2009). […] Hemoglobin A1c, a measure of average blood glucose, was reduced by approximately 0.9% in this cohort, consistent with improved diabetes control (FIG. 6). Finally, the calculated Beta cell mass increased across the treatment period by approximately 25%.

[2] = tested on: Type II diabetic patients; test: Hemoglobin A1c during 24 week omeprazole trial (Example 4)
Protocol: (§2) Seven Type II diabetic patients were administered omeprazole for 24 weeks and data was obtained from fasting and following a 2 hour glucose tolerance test at 8 week intervals and compared to baseline values. Statistical comparisons and analysis were performed with a commercial program, Analyse-it, version 2.20.
(§3) Subjects: Five males, 2 females, age range 42-68 years, mean age 54+10 years. BMI's ranged from 31 to 49, mean 38+6. All subjects had co-morbid hypertension, four had co-morbid dyslipidemia and two had co-morbid hypothyroidism. All were stable on oral diabetes medications with 7/7 on metformin, 6/7 on pioglitazone (Actos), 4/7 on a DPP-4 inhibitor, sitagliptan (Januvia) and 4/7 on a Sulfonylurea. All subjects received a physical exam, review of systems and a baseline EKG prior to initiating the PPI trial. Subjects were then seen and evaluated at monthly intervals interviewed for adverse events and monitored for medication compliance and maintenance of daily blood glucose logs.
Design: All subjects continued on their respective oral antidiabetic medications throughout the study. Baseline data was obtained in a fasting state after an overnight fast. Subjects were then administered 75 g of glucose and blood samples obtained at 1 and 2 hours. […]

[3] = tested on: Type II diabetic patients; test: 2 hour glucose tolerance test during 24 week omeprazole trial (Example 4)
Protocol: as §2, §3, §1
Measurements: Helicobacter Pylori IgG was obtained on each subject as a baseline as were Hemoglobin A1c and fasting Gastrin. Each 2 hour glucose tolerance test provided fasting glucose, insulin and c-peptide as well as 1 hour and 2 hour glucose and stimulated insulin and c-peptide. All measurements were obtained through a commercial laboratory using standardized analytical methods, Quest Diagnostics Laboratory, 5850 Rogerdale Road, Houston, Tex. 77072.

[4] = tested on: Type II diabetic patients; test: Plasma gastrin during 24 week omeprazole trial (Example 4); conditions: serum levels gradually reduced over time (FIG. 7)
Protocol: Statistical comparisons and analysis were performed with a commercial program, Analyse-it, version 2.20. Design: All subjects continued on their respective oral antidiabetic medications throughout the study. Baseline data was obtained in a fasting state after an overnight fast. Subjects were then administered 75 g of glucose and blood samples obtained at 1 and 2 hours. Following collection of baseline data, subjects were administered Omeprazole Delayed-Release Capsules USP, (Apotex Inc., Toronto, Canada [MUT] 179), 40 mg orally twice daily and blood samples again obtained after 8, and 16 weeks. Medications were not taken on the mornings of testing. Following the 16 week sample collection, subjects were increased to 80 mg Omeprazole twice daily and blood samples again obtained at 24 weeks. Measurements: Helicobacter Pylori IgG was obtained on each subject as a baseline as were Hemoglobin A1c and fasting Gastrin. Each 2 hour glucose tolerance test provided fasting glucose, insulin and c-peptide as well as 1 hour and 2 hour glucose and stimulated insulin and c-peptide. All measurements were obtained through a commercial laboratory using standardized analytical methods, Quest Diagnostics Laboratory, 5850 Rogerdale Road, Houston, Tex.

[5] = after PPI administration (FIG. 4)

**Q.** How did the “calculated Beta cell mass increase across the treatment period” value [1] turn out when COc1ccc2[nH]c([S+]([O-])Cc3ncc(C)c(OC)c3C)nc2c1 (stereo not drawn) [Omeprazole, 5-methoxy-2-[(4-methoxy-3,5-dimethyl-2-pyridinyl)methyl]sulfinyl-1H-benzimidazole] was run?
**A.** approximately 25%

**Q.** And the “percent hemoglobin A1c, change for all patients” value ([2]; FIG. 1, statistically significant)?
**A.** decrease

**Q.** And the “Hemoglobin A1c reduction in this cohort” value ([2]; seven Type II diabetics, PPI administration up to 24 weeks (FIG. 6))?
**A.** approximately 0.9%

**Q.** What about the “maximum glucose excursion at both 1 and 2 hours, change” value ([3]; 8 and 16 weeks, statistically significant reductions at 16 weeks (FIG. 3)) of the same compound?
**A.** reduced

**Q.** What about the “Stimulated insulin secretion at both 1 and 2 hours, change” value [3, 5] of the same compound?
**A.** increased

**Q.** What about the “fasting insulin levels, change” value [3, 5] of the same compound?
**A.** unchanged

**Q.** And the “1 and 2 hour c-peptide secretion, change” value ([3]; after PPI administration (FIG. 5))?
**A.** increased

**Q.** What about the “Fasting blood glucose, change” value ([3]; at both 8 and 16 weeks (FIG. 3)) of the same compound?
**A.** reduced

**Q.** What about the “plasma gastrin, change by long term PPI administration” value [4] of the same compound?
**A.** markedly elevated
